According to US9394338B2, “Glutathione analogs and uses thereof” (REGENTS OF THE UNIVERSITY OF MINNESOTA, priority 2011, dated 2016):

Legend:
[1] = system: equine kidney γ-glutamyltranspeptidase; experiment: γ-Glutamyltranspeptidase assay (stability to γ-GT mediated degradation); assay type: in vitro ADME
Method: γ-Glutamyltranspeptidase Assay. […] The plates were developed alongside authentic predicted degradation products with the solvent system: 4:1.5:2; Butanol/Acetic acid/Water. Visual detection of TLC spots was performed under UV and also by iodine and fluorescamine staining solution.

SH-SY-5Y cells [2] = experiment: Protection against H2O2 cytotoxicity, MTT assay; assay type: cell-based, human; conditions: preincubation 24 h, H2O2 50 μM 30 min
Method: Similar procedures were used for determining the protective effect of GSH and its analog against H2O2 cytotoxicity. After preincubation of cells with GSH or Ψ-GSH for 24 hours, cells were exposed to H2O2 (50 μM) for 30 min and the media was replaced with fresh media. Cells were incubated for an additional 24 h after which the cell viability was the determined by the MTT assay as described earlier.

SH-SY-5Y cells [3] = experiment: H2O2 and MG-induced cellular oxidative stress (DCFH-DA); assay type: cell-based, human; conditions: for intracellular ROS after H2O2 exposure: H2O2 500 μM, co-incubation with 250 μM compound; for ROS generated by MG treatment: MG 1 mM, 180 min, 250 μM compound
Method: H2O2 and MG-Induced Cellular Oxidative Stress. SH-SY-5Y cells were cultured in 96-well black plates at the density of 10,000 cells/well and were allowed to reach confluence (˜48 h). The cells were then treated with a solution of 2,7-dichlorofluorescin diacetate (DCFH-DA, 20 μM) in RPMI 1640 medium without FBS for 45 min. Extracellular DCFH-DA was removed by washing twice with PBS. To induce oxidative stress, the cells were treated with hydrogen peroxide (500 μM) or methylglyoxal (1 mM) in RPMI media without FBS in presence and absence of GSH or Ψ-GSH (250 μM) for 90 min or 180 min at 37° C. in the dark. The cells were washed with PBS and then lysed by adding 250 μl of 90% DMSO/10% PBS for 10 min in the dark at room temperature with shaking. The fluorescence intensity in each well was measured in the fluorescence plate reader (BioTek SynergyHT, VT, USA) at an excitation of 485 nm and an emission of 538 nm and normalized to the protein content in each well as determined by the BCA assay. (Wang et al., Free Radic. Res. 2008, 42, 435-441)

APP/PS1 mice = experiment: Brain ROS assay (DCFH-DA); assay type: in vivo
Method: Efficacy Study Design. To determine the effect of intraperitoneal and oral Ψ-GSH treatment, the study was divided in four groups (10 mice/group). 1. APP/PS1 mice-vehicle control, 2. APP/PS1 mice-Ψ-GSH i.p. 500 mg/kg, 3. APP/PS1 mice-Ψ-GSH oral 500 mg/kg, 4. Non-transgenic wild type mice-vehicle control. All the animals in the above-said groups were treated with saline or Ψ-GSH three times a week for 12 weeks, starting at the age of three to four months. Eleven weeks after the start of the treatment, the animals were tested in the Morris water maze, and twelve weeks after the start of the treatment, the animals were sacrificed for histopathological analysis.
ROS Assay. ROS levels were quantified via the 2′-7′-dichlorofluorescein-diacetate (DCFH-DA) assay. […] The reaction was then stopped by placing it on ice and the formation of oxidized fluorescent 2′-7′-dichlorofluorescein (DCF) was measured with a fluorescence plate reader (BioTek SynergyHT, VT, USA) using excitation and emission wavelengths at 488 and 525 nm, respectively. The final results were corrected for protein concentration and then expressed as percentage of the corresponding values in saline treated wild-type mice. All steps were performed in the dark and DCF formation was also monitored immediately after DCFH-DA was added to the homogenate (t=0 min) in order to subtract background autofluorescence.

Swiss Webster Mice = experiment: ACP (acetaminophen) overdose rescue and effects on normal liver; assay type: in vivo
Method: 36-Male Swiss Webster Mice (HSD) were fasted over-night and then brought to the lab at 8:00 am the following day and weighed. Food was kept out of the cages until after the final drug injection. Mice were divided into treatment groups as below in Table 2.
Thirty minutes post overdose with 370 mg/kg ACP, the following were evaluated for the groups in Table 2:
N-acetylcysteine (NAC) at 7.35 mmol/kg;
Ψ-GSH at three different doses, 3.67, 2.45 and 1.22 mmol/kg; and
examine effects of Ψ-GSH on normal liver at rescue doses.

SH-SY-5Y cells [4] = experiment: Determination of intracellular MG concentration after glucose treatment; assay type: cell-based, human; conditions: 50 mM glucose three days, compound 500 μM
Method: Determination of Intracellular MG Concentration. SHSY5Y cells were seeded in a T150 flask and allowed to grow for 24 h. The next day, cells were treated with glucose (50 mM) in the presence and the absence of GSH or Ψ-GSH (500 μM). Cells without glucose treatment were used as a control. After 3 days of treatment, the cell pellet was collected and sonicated in 1 mL of PBS buffer to obtain cell lysates, which were derivatized as follows: 1 mL of cell lysate+0.2 mL 5 M HClO4+0.2 mL 10 mM 1,2 diaminobenzene+0.1 mL 1 μM 5-methylquinoxaline (internal std.)+0.5 mL water to 2 mL final volume. Samples were incubated at room temperature overnight and then centrifuged. The supernatant was passed through a C-18 SPE cartridge which had been prepared by flushing 2-4 mL of acetonitrile followed by 2-4 mL of 10 mM KH2PO4 (pH 2.4). After evaporation of the acetonitrile layer, the solid obtained was redissolved in 0.2 mL of 20% acetonitrile in 10 mM KH2PO4 (pH=2.4). The concentration of MG derivative, 2-methylquinoxaline, was measured using a Beckman Coulter Gold chromatography system. The column was Varian Microsorb-MV 300-5 25 cm C18 column (4.6 mm internal diameter and 5 μm particle diameter). The mobile phase was 80 vol % of 10 mM KH2PO4 and 20 vol % of HPLC grade acetonitrile. […]

Structure (SMILES): N[C@@H](CNC(=O)N[C@@H](CS)C(=O)NCC(=O)O)C(=O)O [Ψ-GSH, γ-Gla-Cys-Gly-OH]
- degradation during incubation with γ-GT ([1]; incubation with γ-GT for up to 24 h): No appreciable degradation
- protection against peroxide cytotoxicity (SH-SY-5Y cells [2]): dose-dependent protection
- intracellular ROS after H2O2 exposure (SH-SY-5Y cells [3]): reduction in ROS to the levels in control cells
- ROS generated by MG treatment (SH-SY-5Y cells [3]): neutralized effectively
- total brain ROS levels, increase over WT mice (APP/PS1 mice; i.p.): 6%
- levels of ROS (APP/PS1 mice; oral): unaffected
- liver histopathology after ACP overdose (Swiss Webster Mice; 370 mg/kg ACP + rescue agent): absence of necrotic tissue
- ALT levels after ACP overdose (Swiss Webster Mice; 370 mg/kg ACP, rescue 30 min later at half molar equivalent of NAC): decrease in ALT levels comparable to that caused by NAC
- tolerability when given alone (Swiss Webster Mice; mouse, in vivo): safe and well tolerated
- glucose-induced intracellular MG accumulation (SH-SY-5Y cells [4]): prevented glucose-induced intracellular MG accumulation

Structure (SMILES): N[C@@H](CCC(=O)N[C@@H](CS)C(=O)NCC(=O)O)C(=O)O [GSH, Glutathione]
- time to complete degradation by γ-GT ([1]; incubation with γ-GT): ≤ 30 min
- protection against peroxide cytotoxicity (SH-SY-5Y cells [2]): dose-dependent protection
- intracellular ROS after H2O2 exposure (SH-SY-5Y cells [3]): reduction in ROS to the levels in control cells
- ROS generated by MG treatment (SH-SY-5Y cells [3]): neutralized effectively
- glucose-induced intracellular MG accumulation (SH-SY-5Y cells [4]): prevented glucose-induced intracellular MG accumulation
